Assay results reported in ChEMBL document CHEMBL1147813, “Design, molecular modeling, synthesis, and anti-HIV-1 activity of new indolyl aryl sulfones. Novel derivatives of the indole-2-carboxamide” (J Med Chem, 2006).
pEC50: −log10 of the molar value.

How the values were obtained:
Lymphocyte [1] = assay: Cytotoxicity against human lymphocytes; format: functional; conditions: read-out: TC50 (the source's name)
[2] = tested on: Human immunodeficiency virus 1; assay: Activity against HIV1 3B assessed by inhibition of p24 production in human lymphocytes; format: functional, organism-based; conditions: Human immunodeficiency virus 1, 3B
[3] = tested on: Human immunodeficiency virus; assay: Activity against HIV-112 assessed by inhibition of p24 production in human lymphocytes; format: functional, organism-based; conditions: Human immunodeficiency virus 1
[4] = tested on: Human immunodeficiency virus; assay: Activity against HIV-AB1 assessed by inhibition of p24 production in human lymphocytes; format: functional, organism-based; conditions: Human immunodeficiency virus 1
Lymphocyte [5] = assay: Selectivity index, TC50 for human lymphocytes/EC50 for HIV1 3B; format: functional
Lymphocyte [6] = assay: Selectivity index, TC50 for human lymphocytes/EC50 for HIV-112; format: functional
Lymphocyte [7] = assay: Selectivity index, TC50 for human lymphocytes/EC50 for HIV-AB1; format: functional
Macrophage [8] = assay: Cytotoxicity against human macrophages; format: functional; conditions: read-out: TC50 (the source's name)
[9] = tested on: Human immunodeficiency virus 1; assay: Antiviral activity against HIV1 […] in human macrophages; format: functional, organism-based
Macrophage [10] = assay: Selectivity index, TC50 for human macrophages/EC50 for HIV1 […]; format: functional
MT4 [11] = assay: Cytotoxicity against MT4 cell line by MTT assay; format: functional; conditions: Homo sapiens, read-out: TC50 (the source's name)
[12] = tested on: Human immunodeficiency virus 1; assay: Antiviral activity against HIV1 in MT4 cell line; format: functional, organism-based; conditions: Human immunodeficiency virus 1, MT4; for pEC50: read-out: EC50; for EC50: read-out: Log EC50 (converted)
MT4 [13] = assay: Selectivity index, TC50 for MT4 cell line/EC50 for HIV1; format: functional
C8166 [14] = assay: Antiproliferative activity against C8166 cell line by MTT assay; format: functional; conditions: Homo sapiens, read-out: TC50 (the source's name)
[15] = tested on: Human immunodeficiency virus 1; assay: Antiviral activity against HIV1 in C8166 cell line; format: functional, organism-based; conditions: Human immunodeficiency virus 1, C8166
C8166 [16] = assay: Selectivity index, TC50 for C8166 cell line/EC50 for HIV1; format: functional
[17] = tested on: Human immunodeficiency virus 1; assay: Antiviral activity against HIV1 3B in MT4 cell line; format: functional, organism-based; conditions: Human immunodeficiency virus 1, 3B
[18] = tested on: Human immunodeficiency virus 1; assay: Antiviral activity against HIV1 Y181C mutant in MT4 cell line; format: functional, organism-based; conditions: Human immunodeficiency virus 1, MT4
[19] = tested on: Human immunodeficiency virus 1; assay: Antiviral activity against HIV1 K103N-Y181C mutant in MT4 cell line; format: functional, organism-based; conditions: Human immunodeficiency virus 1, MT4

SMILES | CC50 (Lymphocyte [1]) [nM] | pEC50 [2] | pEC50 [3] | pEC50 [4] | Selectivity index (Lymphocyte [5]) | Selectivity index (Lymphocyte [6]) | Selectivity index (Lymphocyte [7]) | CC50 (Macrophage [8]) [nM] | pEC50 [9] | Selectivity index (Macrophage [10]) | CC50 (MT4 [11]) [nM] | pEC50 [12] | EC50 [12] [nM] | Selectivity index (MT4 [13]) | CC50 (C8166 [14]) [nM] | pEC50 [15] | Selectivity index (C8166 [16]) | pEC50 [17] | pEC50 [18] | pEC50 [19]
CNNC(=O)c1[nH]c2ccc(Cl)cc2c1S(=O)(=O)c1cc(C)cc(C)c1 | > 100000 | 7.70 | 7.40 | 7.70 | >5000 | >2500 | >5000 | > 100000 | 7.52 | >3333 | > 100000 | 7.70 | 20 | >5000 | > 100000 | 7.52 | >3333 | 7.30 | 6.89 | < 4.70
Cc1cc(C)cc(S(=O)(=O)c2c(C(=O)NNC3CCCCC3)[nH]c3ccc(Cl)cc23)c1 | > 100000 | 6.10 | 6.00 | 6.05 | >125 | >100 | >111 | > 100000 | 6.70 | >500 | > 100000 | 7.30 | 50 | >2000 | > 100000 | 7.10 | >1250 | 7.00 | 5.92 | < 4.70
CC(=O)NNC(=O)c1[nH]c2ccc(Cl)cc2c1S(=O)(=O)c1cc(C)cc(C)c1 | > 100000 | 8.00 | 8.10 | 8.00 | >10000 | >12500 | >10000 | > 100000 | 8.10 | >12500 | > 100000 | 8.30 | 5 | >20000 | > 100000 | 8.15 | >14285 | 8.30 | 7.70 | < 4.70
Cc1cc(C)cc(S(=O)(=O)c2c(C(=O)NNC(C)C)[nH]c3ccc(Cl)cc23)c1 | > 100000 | 8.10 | 8.22 | 8.10 | >12500 | >16666 | >12500 | > 100000 | 8.30 | >20000 | > 100000 | 9.15 | 0.7 | >142857 | > 100000 | 8.52 | >33333 | 9.15 | 7.40 | 5.07
